ChEMBL document CHEMBL1201862, “PubChem BioAssay data set” (2004)
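Tested at 5 concentrations; 48 h exposure; 96-well plates; endpoints linearly interpolated, else capped at highest concentration. GI50 = concentration required for 50% inhibition of growth.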 The source made the active and inactive calls. Rule as the data show it: active = GI50 up to about 1.1 µM and inactive = higher.

Legend:
Test in all cases: DTP human tumour cell line panel, 48 h
LXFL 529 = test system: LXFL 529
NCI-H23 = test system: NCI-H23
SW-620 = test system: SW-620
OVCAR-5 = test system: OVCAR-5
SK-MEL-28 = test system: SK-MEL-28
RXF 631 = test system: RXF 631
DMS-273 = test system: DMS-273
HOP-62 = test system: HOP-62
KM-20L2 = test system: KM-20L2
UACC-257 = test system: UACC-257
SNB-19 = test system: SNB-19
NCI-H522 = test system: NCI-H522
HOP-92 = test system: HOP-92
SK-OV-3 = test system: SK-OV-3
CAKI-1 = test system: CAKI-1
RPMI-8226 = test system: RPMI-8226
SN12C = test system: SN12C
786-0 = test system: 786-0
COLO 205 = test system: COLO 205
NCI-H226 = test system: NCI-H226
OVCAR-3 = test system: OVCAR-3
SNB-78 = test system: SNB-78
NCI-H460 = test system: NCI-H460
HCT-116 = test system: HCT-116
OVCAR-8 = test system: OVCAR-8
ACHN = test system: ACHN
KM12 = test system: KM12
UO-31 = test system: UO-31
U-251 = test system: U-251
M19-MEL = test system: M19-MEL
RXF 393 = test system: RXF 393
MOLT-4 = test system: MOLT-4
CCRF-CEM = test system: CCRF-CEM
OVCAR-4 = test system: OVCAR-4
SF-268 = test system: SF-268
SK-MEL-5 = test system: SK-MEL-5
Malme-3M = test system: Malme-3M
SF-539 = test system: SF-539
HCT-15 = test system: HCT-15
K562 = test system: K562
HCC 2998 = test system: HCC 2998
A498 = test system: A498
EKVX = test system: EKVX
HL-60 = test system: HL-60
HT-29 = test system: HT-29
A549 = test system: A549
DMS-114 = test system: DMS-114
M14 = test system: M14
UACC-62 = test system: UACC-62
SNB-75 = test system: SNB-75
SK-MEL-2 = test system: SK-MEL-2
TK-10 = test system: TK-10
XF498 = test system: XF498
SF-295 = test system: SF-295
LOX IMVI = test system: LOX IMVI
IGROV-1 = test system: IGROV-1
SR = test system: SR
DLD-1 = test system: DLD-1
HOP-18 = test system: HOP-18

Measured: GI50

Cc1c(C(=O)CC(=O)C(=O)Nc2c(C(C)C)cccc2C(C)C)[n+]([O-])c2ccccc2[n+]1[O-]
inactive: LXFL 529 11.1 µM | NCI-H23 13.2 µM | SW-620 3.87 µM | OVCAR-5 21.3 µM | SK-MEL-28 13.7 µM | RXF 631 3.3 µM | DMS-273 3.4 µM | HOP-62 29.7 µM | KM-20L2 4.55 µM | UACC-257 3.36 µM | SNB-19 7.73 µM | NCI-H522 2.25 µM | HOP-92 16.1 µM | SK-OV-3 16.7 µM | CAKI-1 22 µM | RPMI-8226 3.18 µM | SN12C 3.15 µM | 786-0 5.21 µM | COLO 205 3.76 µM | NCI-H226 22.6 µM | OVCAR-3 2.08 µM | SNB-78 12.4 µM | NCI-H460 2.62 µM | HCT-116 2.81 µM | OVCAR-8 2.57 µM | ACHN 2.52 µM | KM12 3.47 µM | UO-31 16.6 µM | U-251 3.09 µM | M19-MEL 1.99 µM | RXF 393 13.5 µM | MOLT-4 2.9 µM | CCRF-CEM 2.34 µM | OVCAR-4 3.48 µM | SF-268 5.01 µM | SK-MEL-5 10.4 µM | Malme-3M 7.19 µM | SF-539 4.43 µM | K562 6.12 µM | HCC 2998 5.14 µM | A498 29.4 µM | EKVX 13.8 µM | HL-60 2.4 µM | HT-29 3.56 µM | A549 15.7 µM | DMS-114 2.59 µM | M14 3.4 µM | UACC-62 9.98 µM | SNB-75 14.4 µM | SK-MEL-2 11.4 µM | TK-10 26.1 µM | XF498 3.05 µM | SF-295 14.8 µM | LOX IMVI 3.4 µM | IGROV-1 3.55 µM
2.79 µM: HCT-15

CC(Nc1ccc(S(=O)(=O)NC(=N)N)cc1)c1c2ccccc2nc2ccccc12 (stereo unspecified)
inactive: LXFL 529 28.8 µM | SR 14.2 µM | NCI-H23 22.5 µM | SW-620 41.3 µM | OVCAR-5 20.2 µM | SK-MEL-28 44.9 µM | RXF 631 26 µM | DMS-273 28.3 µM | KM-20L2 31.8 µM | UACC-257 35.3 µM | SNB-19 40 µM | NCI-H522 15.1 µM | HOP-92 18.5 µM | SK-OV-3 26.4 µM | CAKI-1 19 µM | RPMI-8226 16.3 µM | SN12C 30 µM | 786-0 36 µM | COLO 205 57.7 µM | NCI-H226 19.6 µM | OVCAR-3 > 10 µM | NCI-H460 25.4 µM | HCT-116 > 10 µM | OVCAR-8 23.9 µM | ACHN 24.7 µM | KM12 34.8 µM | UO-31 19 µM | U-251 31.6 µM | M19-MEL 34.4 µM | RXF 393 26.9 µM | MOLT-4 14.6 µM | CCRF-CEM 19.3 µM | OVCAR-4 10.1 µM | SF-268 31 µM | Malme-3M 22.4 µM | SF-539 22.9 µM | K562 27.6 µM | HCC 2998 27.5 µM | EKVX 25.5 µM | DLD-1 18.1 µM | HL-60 14.5 µM | HT-29 35.4 µM | A549 31.4 µM | DMS-114 31.7 µM | M14 41 µM | UACC-62 > 10 µM | SNB-75 26.8 µM | SK-MEL-2 22.5 µM | TK-10 47.4 µM | XF498 15.8 µM | SF-295 35.2 µM | LOX IMVI 28 µM | IGROV-1 46.5 µM
29.2 µM: HCT-15

O=C1OC(=O)C([Se]c2ccccc2)=C1[Se]c1ccccc1
inactive: HOP-18 > 100 µM | LXFL 529 > 100 µM | SR > 100 µM | NCI-H23 32.4 µM | SW-620 > 100 µM | OVCAR-5 > 100 µM | SK-MEL-28 > 100 µM | RXF 631 > 100 µM | HOP-62 > 100 µM | KM-20L2 > 100 µM | UACC-257 > 100 µM | SNB-19 > 100 µM | NCI-H522 > 100 µM | HOP-92 70.1 µM | SK-OV-3 > 100 µM | CAKI-1 > 100 µM | RPMI-8226 > 100 µM | SN12C > 100 µM | 786-0 > 100 µM | COLO 205 > 100 µM | NCI-H226 > 100 µM | OVCAR-3 > 100 µM | SNB-78 > 100 µM | NCI-H460 > 100 µM | HCT-116 > 100 µM | OVCAR-8 > 100 µM | ACHN > 100 µM | U-251 > 100 µM | RXF 393 > 100 µM | MOLT-4 > 100 µM | CCRF-CEM > 100 µM | OVCAR-4 > 100 µM | SF-268 > 100 µM | SK-MEL-5 > 100 µM | Malme-3M > 100 µM | SF-539 > 100 µM | K562 > 100 µM | A498 > 100 µM | EKVX > 100 µM | DLD-1 > 100 µM | HL-60 > 100 µM | HT-29 44.9 µM | A549 > 100 µM | DMS-114 > 100 µM | M14 > 100 µM | UACC-62 > 100 µM | SNB-75 > 100 µM | TK-10 > 100 µM | SF-295 > 100 µM | LOX IMVI > 100 µM | IGROV-1 > 100 µM
> 100 µM: HCT-15

CC1(O)C(C)(O)C2(C)O[Te]3(OC12C)OC1(C)C(C)(O)C(C)(O)C1(C)O3 (stereo unspecified)
11.5 µM: HCT-15
inactive: LXFL 529 16 µM | SR 17.2 µM | NCI-H23 14.8 µM | SW-620 > 10 µM | OVCAR-5 15.3 µM | SK-MEL-28 16.2 µM | RXF 631 18.5 µM | DMS-273 19.3 µM | HOP-62 > 100 µM | UACC-257 > 100 µM | SNB-19 28.1 µM | NCI-H522 17.8 µM | HOP-92 31 µM | SK-OV-3 > 10 µM | RPMI-8226 15.5 µM | SN12C 23.1 µM | 786-0 56.8 µM | COLO 205 > 100 µM | NCI-H226 29.4 µM | OVCAR-3 20.2 µM | SNB-78 > 100 µM | NCI-H460 3.32 µM | OVCAR-8 16.1 µM | ACHN 31.3 µM | KM12 23.7 µM | UO-31 27.5 µM | U-251 10.8 µM | M19-MEL 22.1 µM | RXF 393 12.4 µM | MOLT-4 11.8 µM | CCRF-CEM 2.41 µM | OVCAR-4 24.3 µM | SF-268 > 10 µM | SK-MEL-5 15 µM | Malme-3M 96.2 µM | SF-539 29.1 µM | K562 9.79 µM | HCC 2998 42.7 µM | A498 > 10 µM | EKVX > 100 µM | DLD-1 33 µM | HL-60 10.6 µM | HT-29 27.3 µM | A549 6.67 µM | DMS-114 20 µM | M14 > 100 µM | UACC-62 35.6 µM | SNB-75 > 100 µM | SK-MEL-2 44.6 µM | TK-10 23.1 µM | XF498 > 100 µM | SF-295 15.3 µM | LOX IMVI 4.41 µM | IGROV-1 12.3 µM

C1=Cc2nc1c(-c1ccccc1)c1ccc([n-]1)c(-c1ccccc1)c1nc(c(-c3ccccc3)c3ccc([n-]3)c2-c2ccccc2)C=C1.[Zn+2]
inactive: LXFL 529 > 100 µM | NCI-H23 > 100 µM | SW-620 > 100 µM | OVCAR-5 > 100 µM | SK-MEL-28 > 100 µM | RXF 631 > 100 µM | HOP-62 19.9 µM | KM-20L2 > 100 µM | UACC-257 > 100 µM | SNB-19 > 100 µM | NCI-H522 > 100 µM | HOP-92 > 100 µM | SK-OV-3 > 100 µM | CAKI-1 > 100 µM | RPMI-8226 75.7 µM | SN12C > 100 µM | 786-0 > 100 µM | COLO 205 > 100 µM | NCI-H226 > 100 µM | OVCAR-3 > 100 µM | SNB-78 > 100 µM | NCI-H460 > 100 µM | HCT-116 > 100 µM | OVCAR-8 > 100 µM | ACHN > 100 µM | KM12 > 100 µM | UO-31 > 100 µM | U-251 > 100 µM | M19-MEL > 100 µM | MOLT-4 > 100 µM | CCRF-CEM > 100 µM | OVCAR-4 > 100 µM | SF-268 > 100 µM | SK-MEL-5 > 100 µM | Malme-3M > 100 µM | SF-539 > 100 µM | K562 > 100 µM | HCC 2998 > 100 µM | EKVX > 100 µM | DLD-1 70.1 µM | HL-60 45 µM | HT-29 > 100 µM | A549 > 100 µM | DMS-114 > 100 µM | M14 > 100 µM | UACC-62 > 100 µM | SNB-75 67.5 µM | SK-MEL-2 > 100 µM | TK-10 > 100 µM | XF498 > 100 µM | SF-295 > 100 µM | LOX IMVI > 100 µM | IGROV-1 > 100 µM
> 100 µM: HCT-15
